The data set is described as follows: Human HepG2 cell viability assay in 384 well format. As to conditions: HepG2 cells, read-out: Inhibition. The class given is toxicity, cell-based. The arrangement: dose 125 nL, time 70.5 hour; cytotoxicity at 70.5 h: concentration not given beside the values.

Molecules are shown by their SMILES.

For `COCCN1CCc2nc(SCc3ccc(F)cc3)[nH]c(=O)c2C1`, the cytotoxicity at 70.5 h is 28.7%.
For `CCC(C)NS(=O)(=O)c1ccc(/C=C\c2onc(C)c2NC(C)=O)cc1` (stereo unspecified), the cytotoxicity at 70.5 h was -4.12%.
The result for `CC(=O)Nc1c(C)noc1/C=C\c1ccc(S(=O)(=O)NC2CC2)cc1` reads -1.71%.
Then `O=C1CC2(CCN(C(=O)Cc3cc4c(cc3Cl)OCCO4)C2)C(=O)N1` (stereo unspecified), with -5.25%.
As to `Cc1cccc(N2CCC(N3CCCC4(CN(C)C(=O)O4)C3)CC2)c1C` (stereo unspecified), the cytotoxicity at 70.5 h was -9.98%.
The result for `C[C@@H]1CN(C(=O)c2cc(COc3ccc4c(c3)OCO4)[nH]n2)C[C@H](C)O1` reads -3.48%; that for `CCC(C(=O)NCc1noc(Cc2cccs2)n1)n1cccn1` (stereo unspecified), 26%; that for `Cc1cc2ccccc2n1CCC(=O)N1CCCC(O)(CN(C)C)CC1` (stereo unspecified), -0.891%.
Then `Cc1ccccc1CN(CCO)Cc1ncc[nH]1`, with -12.3%.
Then `CCn1c(CC2CCN(C(=O)c3cc(C(C)C)n[nH]3)CC2)n[nH]c1=O`, with -6.21%; and `Nc1nc(Sc2cccs2)cc(N2CC[C@H](CO)[C@H](O)C2)n1`, with 22.1%.
For `COc1ccnc(N2C[C@@H]3CC[C@H](C2)N(CC2CC2)C3)n1`, the cytotoxicity at 70.5 h was 4.47%.
With `CNC(=O)C1CCN(C(=O)c2coc(COc3ccc(OC)cc3)n2)C1` (stereo unspecified), the cytotoxicity at 70.5 h is -2.27%.
The result for `Cc1ccc(F)c(OC2(C(=O)O)CCN(C(=O)C3CCCC3)CC2)c1` reads -4.91%; that for `Cc1c(CN2CCCC(c3[nH]ncc3S(C)(=O)=O)C2)cnn1C` (stereo unspecified), -5.66%.
Then `Fc1cccnc1CN1CCCCC1c1ccn2ccnc2n1` (stereo unspecified), with 6.23%.
Then `Nc1cc(CCC2CN(Cc3ccc(C(=O)O)cc3)CCO2)ccn1` (stereo unspecified), with 23.8%; and `CNc1ccc(CC2CCCN(C(=O)c3cncnc3C)C2)nn1` (stereo unspecified), with -0.989%.
For `CCn1cc(C(=O)N2CCCC(c3[nH]ncc3S(C)(=O)=O)C2)cn1` (stereo unspecified), the cytotoxicity at 70.5 h is -8.2%.
Then `O=C(NC[C@]1(O)CN(Cc2ccccc2F)C[C@H]1O)c1ccccn1`, with -62.9%; and `COc1cccc(-c2noc(C3CCN(Cc4cn(C)nc4C)C3)n2)c1` (stereo unspecified), with -5.53%; and `Cn1cc(C(=O)N2CCCC(Cc3nccs3)C2)cn1` (stereo unspecified), with -1.09%.
Turning to `Cc1cncc(C2CCCN(Cc3cccn3C)C2)n1` (stereo unspecified), the cytotoxicity at 70.5 h worked out at 0.452%.
The result for `CCCn1ccc(C(=O)N2CCOC(c3nc(-c4cccs4)no3)C2)n1` (stereo unspecified) reads 4.34%; that for `CCn1cc(CN2CCCC(c3[nH]ncc3S(C)(=O)=O)C2)cn1` (stereo unspecified), 1.9%; that for `Fc1ccc(CN2CCCC2c2cncc(-n3ccnc3)n2)cc1` (stereo unspecified), -1.28%.
Then `COCC(=O)N1CCC(c2cc(C(F)(F)F)n3ccnc3n2)CC1`, with -8.3%; and `CC1CN(C)CCN1C(=O)c1ccn(-c2ccccc2Cl)n1` (stereo unspecified), with 16.7%; and `c1cc(CN2CCCC2c2noc(C3CC3)n2)on1` (stereo unspecified), with -15.8%.
Then `COc1c(C2CCCN2C(=O)c2cc(C)on2)c(C)nn1C` (stereo unspecified), with -8.13%; and `CNS(=O)(=O)c1ccc(CNC(=O)c2cccc(C)n2)cc1`, with 16.9%; and `O=c1oc(-c2ccc(F)cc2)nn1CN1CCSCC1`, with -15%.
Regarding `Cc1noc(C(C)C)c1C(=O)NCc1cccc(CN(C)C)c1`, the cytotoxicity at 70.5 h was -1.69%.
Then `CC1CN(Cc2ccccn2)CCN1c1ccc2nncn2n1` (stereo unspecified), with -0.942%; and `CCc1nnc2n1CCN(C(=O)c1cc3cc(C)ccc3[nH]1)C2`, with -13.6%.
Turning to `CCOc1cccc(CNC2CCCN(Cc3noc(C)n3)C2)c1` (stereo unspecified), the cytotoxicity at 70.5 h was -12.1%.
The result for `CCc1nnc2n1CCN(C(=O)c1cc3ccccc3[nH]1)C2` reads -7.28%.
The result for `CN1CCN(C2CCN(CCOc3ccc(Cl)cc3)CC2)C1=O` reads -6.64%.
Then `CN1CCN(C2CCN(CCOc3cccc(Cl)c3)CC2)C1=O`, with -7.02%; and `CN1CCN(C2CCN(CCOc3ccc(C#N)cc3)CC2)C1=O`, with -5.65%.
For the molecule `CCc1nc(C2CCCN2CC(=O)Nc2nnc(C)s2)no1` (stereo unspecified), the cytotoxicity at 70.5 h is -13.4%.
For the molecule `COc1c(C2CCCN2C(=O)c2cnc[nH]2)c(C)nn1C` (stereo unspecified), the cytotoxicity at 70.5 h is -2.57%.
Then `CCN1CCN(C2CCN(CCOc3ccc(F)cc3)CC2)C1=O`, with -11.7%; and `Cc1cnc(CN2CCN(c3ccc4nncn4n3)C(C)C2)cn1` (stereo unspecified), with -15.4%.
For the molecule `Cc1nc(CN2CCN(c3ccc4nncn4n3)C(C)C2)oc1C` (stereo unspecified), the cytotoxicity at 70.5 h is -8.63%.
Regarding `COc1ccc(CNC(C)Cn2cccn2)cc1F` (stereo unspecified), the cytotoxicity at 70.5 h is -1.59%.
For `c1ccc(-c2nc(CN3CCCC3Cn3cccn3)no2)cc1` (stereo unspecified), the cytotoxicity at 70.5 h was 1.06%.
The result for `COc1ccc(-n2ccc(C(=O)NCCN3CCCCCC3)n2)cc1` reads -2.62%.
Then `O=C(Cc1cccc(F)c1)NCCNCc1cccnc1`, with -4.1%; and `COc1cn(-c2ccccc2)nc1C(=O)NCCN1CCCC(C)C1` (stereo unspecified), with -7.85%; and `O=C1CN(c2ccc(CNC(=O)NCC3CCOC3)cc2)CCN1` (stereo unspecified), with -5.59%.
Then `CC1CCCN(CCNC(=O)c2ccn(-c3cccc(F)c3)n2)C1` (stereo unspecified), with 1.27%.
On to `c1cc2n(n1)CC(CNCc1ccc(OC3CCCC3)nc1)CN2` (stereo unspecified), for which the cytotoxicity at 70.5 h was -14.1%.
For `c1ccc(-c2nccc(CNC3CCc4ncnn4C3)n2)cc1` (stereo unspecified), the cytotoxicity at 70.5 h is -4.99%.
Then `COc1cccc(S(=O)(=O)NC(=O)CC2CCCO2)c1` (stereo unspecified), with 21.5%; and `Cc1cc(C[S+]([O-])CC(=O)NCc2cccc(Cl)c2)no1` (stereo unspecified), with -10.3%; and `O=C(Cc1ccc(F)cc1)NCCNCc1cccc(O)c1`, with 0.177%.
Then `N#Cc1cccc(CNCCNC(=O)Cc2cccc(F)c2)c1`, with 26.7%; and `c1ccc(Cc2noc(CN3CCCC3Cn3cccn3)n2)cc1` (stereo unspecified), with -7.45%; and `CC(=O)NC(C)C(=O)NCc1ccc(N2CCNC(=O)C2)cc1` (stereo unspecified), with -15.7%.
As to `COc1ccc(S(=O)(=O)NC(=O)COC2CCCCC2)cc1C`, the cytotoxicity at 70.5 h was -4.48%.
Then `COc1ccc(S(=O)(=O)NC(=O)COC2CCCCC2)cc1`, with -7.04%; and `CCn1cnnc1C1CCN(C(=O)c2cccc(C)c2C)CC1`, with 30.1%; and `CC(NC(=O)Cn1cccn1)c1ccc2c(c1)OCCO2` (stereo unspecified), with -11.1%.
Then `CCn1cnnc1CNC(=O)N1CCN(c2ccccc2OC)CC1`, with -9.83%; and `Cc1noc(CNc2ccc(C(=O)N3CCCC(C)C3)cc2C)n1` (stereo unspecified), with -6.32%; and `O=C1NCCN1C1CCN(Cc2nc(-c3ccc(F)cc3)no2)CC1`, with 25%.
The result for `Cc1cc(C)n(CC2CN(CC(=O)NC3(C#N)CCCC3)CCO2)n1` (stereo unspecified) reads -3.7%; that for `Cc1cc(C)n(CC2CN(CC(=O)NC(C3CC3)C3CC3)CCO2)n1` (stereo unspecified), -4.44%; that for `COc1cc(CNC(C)Cn2cccn2)cc(Cl)c1OC` (stereo unspecified), -4.38%.
With `COc1cc(CNC(C)Cn2cccn2)cc2c1OCCO2` (stereo unspecified), the cytotoxicity at 70.5 h was -4.44%.

The record behind these values is ChEMBL document CHEMBL3507680, “University of Dundee, Gates Library screen for HepG2 cell viability”.
